Legend:
yellow nutsedge = assay: Test G preemergence test; type: in vivo, Cyperus esculentus; conditions: scale 0 to 100
field sandbur = assay: Test G preemergence test; type: in vivo, Cenchrus incertus; conditions: scale 0 to 100
giant foxtail = assay: Test G preemergence test; type: in vivo, Setaria faberii; conditions: scale 0 to 100
windgrass [1] = assay: Test D preemergence test; type: in vivo, Apera spica-venti; conditions: scale 0 to 100
From the text: Seeds of plant species selected from annual bluegrass (Poa annua), blackgrass (Alopecurus myosuroides), downy bromegrass (Bromus tectorum), field violet (Viola arvensis), green foxtail (Setaria viridis), Italian ryegrass (Lolium multiflorum), littleseed canarygrass (Phalaris minor), spring wheat (Triticum aestivum), wild oat (Avena fatua), […]), winter barley (Hordeum vulgare), and winter wheat (Triticum aestivum) were planted and treated preemergence with test chemicals formulated in a non-phytotoxic solvent mixture which included a surfactant. […] A dash (-) response means no test result.

spanishneedles = assay: Test F preemergence test; type: in vivo, Bidens bipinnata; conditions: scale 0 to 100; for Plant response rating, Spanishneedles: Preemergence
From the text: (§1) Seeds of plant species selected from bermudagrass (Cynodon dactylon), Surinam grass (Brachiaria decumbens), large crabgrass (Digitaria sanguinalis), green foxtail (Setaria viridis), goosegrass (Eleusine indica), johnsongrass (Sorghum halepense), kochia (Kochia scoparia), pitted morningglory (Ipomoea lacunosa), purple nutsedge (Cyperus rotundus), common ragweed (Ambrosia elation), mustard (Brassica nigra), guineagrass (Panicum maximum), […] (Paspalum dilatatum), barnyardgrass (Echinochloa crus-galli), southern sandbur (Cenchrus echinatus), common sowthistle (Sonchus oleraceous), prickly […] spinosa), Italian ryegrass (Lolium multiflorum), common purslane (Portulaca oleracea), broadleaf signalgrass (Brachiaria platyphylla), common groundsel (Senecio vulgaris), common chickweed (Stellaria media), Virginia dayflower (Commelina virginica), annual bluegrass (Poa annua), naked crabgrass (Digitaria nuda), […] cochinchinensis), quackgrass (Elytrigia repens), Canada horseweed (Conyza canadensis), field bindweed (Convolvulus arvensis), […] (Bidens bipinnata), common mallow (Malva sylvestris), Russian thistle (Salsola kali), and sugarcane (Saccharum officinarum) were planted and treated preemergence with test chemicals formulated in a non-phytotoxic solvent mixture which included a surfactant. At a different time, sugarcane was treated with postemergence applications of some of the test chemicals formulated in the same manner. Plants were approximately 3- to 4-leaf stage for the postemergence treatments. Treated plants and controls were maintained in a greenhouse for 14 to 21 days, after which time all species were compared to controls and visually evaluated. […] A dash (-) response means no test result.

Russian thistle = assay: Test F preemergence test; type: in vivo, Salsola kali; conditions: scale 0 to 100
From the text: as §1

common sowthistle = assay: Test F preemergence test; type: in vivo, Sonchus oleraceous; conditions: scale 0 to 100
From the text: as §1

winter barley = assay: Test C postemergence test; type: in vivo, Hordeum vulgare; conditions: for Plant response rating, Barley: scale 0 to 100, 0 no effect, 100 complete control
Protocol: (§2) At the same time, plants selected from these crop and weed species and also winter barley (Hordeum vulgare), canarygrass (Phalaris minor), and chickweed (Stellaria media) were treated with postemergence applications of some of the test chemicals formulated in the same manner. Plants ranged in height from 2 to 18 cm (1- to 4-leaf stage) for postemergence treatments. […] At time of treatment, test pots were flooded to 3 cm above the soil surface, treated by application of test compounds directly to the paddy water, and then maintained at that water depth for the duration of the test. Treated plants and controls were maintained in a greenhouse for 13 to 15 days, after which time all species were compared to controls and visually evaluated. […] A dash (-) response means no test result.

canarygrass = assay: Test C postemergence test; type: in vivo, Phalaris minor; conditions: for Plant response rating, Canarygrass: scale 0 to 100, 0 no effect, 100 complete control
Protocol: as §2

chickweed = assay: Test C postemergence test; type: in vivo, Stellaria media; conditions: for Plant response rating, Chickweed: scale 0 to 100, 0 no effect, 100 complete control
Protocol: as §2

windgrass [2] = assay: Test C pre-/postemergence test; type: in vivo, Apera spica-venti; conditions: Postemergence; for Plant response rating, Windgrass: scale 0 to 100, 0 no effect, 100 complete control
From the text: Seeds of plant species selected from blackgrass (Alopecurus myosuroides), downy brome (Bromus tectorum), green foxtail (Setaria viridis), Italian ryegrass (Lolium multiflorum), wheat (Triticum aestivum), wild oat (Avena fatua), catchweed bedstraw (Galium aparine), Russian thistle (Salsola kali), […] (Cynodon dactylon), Surinam grass (Brachiaria decumbens), cocklebur (Xanthium strumarium), corn (Zea mays), crabgrass (Digitaria sanguinalis), woolly cupgrass (Eriochloa villosa), giant foxtail (Setaria faberii), Goosegrass (Eleusin indica), johnsongrass (Sorghum halepense), kochia (Kochia scoparia), lambsquarters (Chenopodium album), morningglory (Ipomoea coccinea), eastern black nightshade (Solanum ptycanthum), yellow nutsedge (Cyperus esculentus), pigweed (Amaranthus retroflexus), common ragweed (Ambrosia elation), soybean (Glycine max), common (oilseed) sunflower (Helianthus annuus), and velvetleaf (Abutilon theophrasti) were planted and treated preemergence with test chemicals formulated in a non-phytotoxic solvent mixture which included a surfactant. At the same time, plants selected from these crop and weed species and also winter barley (Hordeum vulgare), canarygrass (Phalaris minor), and chickweed (Stellaria media) were treated with postemergence applications of some of the test chemicals formulated in the same manner. Plants ranged in height from 2 to 18 cm (1- to 4-leaf stage) for postemergence treatments. […] At time of treatment, test pots were flooded to 3 cm above the soil surface, treated by application of test compounds directly to the paddy water, and then maintained at that water depth for the duration of the test. […] A dash (-) response means no test result.

rice = assay: Test B flooded paddy test; type: in vivo, Oryza sativa; conditions: Flood, 250 g ai/ha, 13 to 15 days; scale 0 to 100, 0 no effect, 100 complete control
From the text: At time of treatment, test pots were flooded to 3 cm above the soil surface, treated by application of test compounds directly to the paddy water, and then maintained at that water depth for the duration of the test. Treated plants and controls were maintained in a greenhouse for 13 to 15 days, after which time all species were compared to controls and visually evaluated. […] A dash (-) response means no test result.

Question: How did the “Plant response rating, Nutsedge, Yellow” value (yellow nutsedge; 31 g ai/ha) turn out when `Cc1cc[n+]([O-])c(S(=O)(=O)C(C)c2c(C(F)(F)F)nn(C)c2Cl)c1` (racemic) [Compound 14] was run?
Answer: The value was 0.

Question: And the “Plant response rating, Nutsedge, Yellow” value (yellow nutsedge; 62 g ai/ha)?
Answer: Its value is 0.

Question: What about the “Plant response rating, Nutsedge, Yellow” value (yellow nutsedge; 125 g ai/ha) of the same molecule?
Answer: Its value is 0.

Question: And the “Plant response rating, Nutsedge, Yellow” value (yellow nutsedge; 250 g ai/ha)?
Answer: The value was 65.

Question: And the “Plant response rating, Sandbur” value (field sandbur; 31 g ai/ha)?
Answer: Its value is 0.

Question: And the “Plant response rating, Sandbur” value (field sandbur; 62 g ai/ha)?
Answer: Its value is 20.

Question: What about the “Plant response rating, Sandbur” value (field sandbur; 125 g ai/ha) of the same molecule?
Answer: Its value is 45.

Question: What about the “Plant response rating, Sandbur” value (field sandbur; 250 g ai/ha) of the same molecule?
Answer: The value was 85.

Question: And the “Plant response rating, Foxtail, Giant” value (giant foxtail; 31 g ai/ha)?
Answer: Its value is 0.

Question: What about the “Plant response rating, Foxtail, Giant” value (giant foxtail; 62 g ai/ha) of the same molecule?
Answer: The value was 20.

Question: And the “Plant response rating, Foxtail, Giant” value (giant foxtail; 125 g ai/ha)?
Answer: The value was 100.

Question: And the “Plant response rating, Foxtail, Giant” value (giant foxtail; 250 g ai/ha)?
Answer: Its value is 100.

Question: And the “Plant response rating, Windgrass” value (windgrass [1]; 31 g ai/ha)?
Answer: The value was 0.

Question: What about the “Plant response rating, Windgrass” value (windgrass [1]; 62 g ai/ha) of the same molecule?
Answer: Its value is 75.

Question: And the “Plant response rating, Windgrass” value (windgrass [1]; 125 g ai/ha)?
Answer: Its value is 100.

Question: And the “Plant response rating, Windgrass” value (windgrass [1]; 250 g ai/ha)?
Answer: Its value is 100.

Question: How did the “Spanishneedles plant response rating” value (spanishneedles; 125 g ai/ha, preemergence) turn out when `CC(c1c(C(F)(F)F)nn(C)c1OCC(F)(F)F)S(=O)(=O)c1cccc[n+]1[O-]` (racemic) [Compound 33] was run?
Answer: The value was 65.

Question: What about the “Plant response rating, Spanishneedles” value (spanishneedles; 62 g ai/ha) of the same molecule?
Answer: The value was 35.

Question: And the “Plant response rating, Spanishneedles” value (spanishneedles; 31 g ai/ha)?
Answer: Its value is 35.

Question: And the “Plant response rating, Russian Thistle” value (Russian thistle; 16 g ai/ha, preemergence)?
Answer: The value was 0.

Question: Which “Plant response rating, Nutsedge, Yellow” value (yellow nutsedge; 31 g ai/ha) does the source give for `Cc1cc[n+]([O-])c(S(=O)(=O)C(Cl)c2c(C(F)(F)F)nn(C)c2Cl)c1` (racemic) [Compound 22] here?
Answer: The value was 0.

Question: What about the “Plant response rating, Nutsedge, Yellow” value (yellow nutsedge; 62 g ai/ha) of the same molecule?
Answer: Its value is 0.

Question: What about the “Plant response rating, Nutsedge, Yellow” value (yellow nutsedge; 125 g ai/ha) of the same molecule?
Answer: The value was 0.

Question: What about the “Plant response rating, Nutsedge, Yellow” value (yellow nutsedge; 250 g ai/ha) of the same molecule?
Answer: Its value is 45.

Question: What about the “Sowthistle plant response rating” value (common sowthistle; 62 g ai/ha, Preemergence) of the same molecule?
Answer: The value was 90.

Question: What about the “Sowthistle plant response rating” value (common sowthistle; 125 g ai/ha, preemergence) of the same molecule?
Answer: Its value is 100.

Question: What about the “Plant response rating, Sowthistle” value (common sowthistle; Preemergence, 31 g ai/ha) of the same molecule?
Answer: Its value is 90.

Question: What about the “Russian Thistle plant response rating” value (Russian thistle; 125 g ai/ha, preemergence) of the same molecule?
Answer: Its value is 100.

Question: What about the “Plant response rating, Sandbur” value (field sandbur; 31 g ai/ha) of the same molecule?
Answer: The value was 15.

Question: What about the “Plant response rating, Sandbur” value (field sandbur; 62 g ai/ha) of the same molecule?
Answer: Its value is 60.

Question: What about the “Plant response rating, Sandbur” value (field sandbur; 125 g ai/ha) of the same molecule?
Answer: Its value is 85.

Question: And the “Plant response rating, Sandbur” value (field sandbur; 250 g ai/ha)?
Answer: The value was 100.

Question: And the “Plant response rating, Foxtail, Giant” value (giant foxtail; 31 g ai/ha)?
Answer: The value was 65.

Question: And the “Plant response rating, Foxtail, Giant” value (giant foxtail; 62 g ai/ha)?
Answer: Its value is 70.

Question: And the “Plant response rating, Foxtail, Giant” value (giant foxtail; 125 g ai/ha)?
Answer: The value was 75.

Question: And the “Plant response rating, Foxtail, Giant” value (giant foxtail; 250 g ai/ha)?
Answer: Its value is 75.

Question: What about the “Plant response rating, Windgrass” value (windgrass [1]; 31 g ai/ha) of the same molecule?
Answer: Its value is 100.

Question: What about the “Plant response rating, Windgrass” value (windgrass [1]; 62 g ai/ha) of the same molecule?
Answer: The value was 100.

Question: And the “Plant response rating, Windgrass” value (windgrass [1]; 125 g ai/ha)?
Answer: Its value is 100.

Question: What about the “Plant response rating, Windgrass” value (windgrass [1]; 250 g ai/ha) of the same molecule?
Answer: The value was 100.

Question: For `Cn1nc(C(F)(F)F)c(C[S+]([O-])c2ccc(Cl)c[n+]2[O-])c1OC(F)F` (stereo not shown) [Compound 6], which “Plant response rating (0 to 100), Barley” value (winter barley; 31 g ai/ha) is on record?
Answer: The value was 0.

Question: And the “Plant response rating, Barley” value (winter barley; 62 g ai/ha)?
Answer: The value was 0.

Question: What about the “Plant response rating, Barley” value (winter barley; 125 g ai/ha) of the same molecule?
Answer: The value was 0.

Question: What about the “Plant response rating, Barley” value (winter barley; 250 g ai/ha) of the same molecule?
Answer: The value was 0.

Question: What about the “Plant response rating (0 to 100), Canarygrass” value (canarygrass; 31 g ai/ha) of the same molecule?
Answer: Its value is 0.

Question: And the “Plant response rating, Canarygrass” value (canarygrass; 62 g ai/ha)?
Answer: Its value is 0.

Question: And the “Plant response rating, Canarygrass” value (canarygrass; 125 g ai/ha)?
Answer: The value was 0.

Question: What about the “Plant response rating, Canarygrass” value (canarygrass; 250 g ai/ha) of the same molecule?
Answer: The value was 10.

Question: What about the “Plant response rating (0 to 100), Chickweed” value (chickweed; 31 g ai/ha) of the same molecule?
Answer: The value was 0.

Question: What about the “Plant response rating, Chickweed” value (chickweed; 62 g ai/ha) of the same molecule?
Answer: The value was 40.

Question: And the “Plant response rating, Chickweed” value (chickweed; 125 g ai/ha)?
Answer: Its value is 85.

Question: And the “Plant response rating, Chickweed” value (chickweed; 250 g ai/ha)?
Answer: The value was 95.

Question: And the “Plant response rating, Sowthistle” value (common sowthistle; 8 g ai/ha, preemergence)?
Answer: The value was 0.

Question: And the “Plant response rating, Sowthistle” value (common sowthistle; 16 g ai/ha, preemergence)?
Answer: The value was 0.

Question: What about the “Sowthistle plant response rating” value (common sowthistle; 62 g ai/ha, Preemergence) of the same molecule?
Answer: Its value is 90.

Question: And the “Plant response rating, Sowthistle” value (common sowthistle; Preemergence, 31 g ai/ha)?
Answer: Its value is 50.

Question: And the “Plant response rating (0 to 100), Windgrass” value (windgrass [2]; 31 g ai/ha)?
Answer: Its value is 50.

Question: What about the “Plant response rating (0 to 100), Windgrass” value (windgrass [2]; 62 g ai/ha) of the same molecule?
Answer: Its value is 98.

Question: What about the “Plant response rating, Windgrass” value (windgrass [2]; 125 g ai/ha) of the same molecule?
Answer: Its value is 100.

Question: What about the “Plant response rating, Windgrass” value (windgrass [2]; 250 g ai/ha) of the same molecule?
Answer: Its value is 100.

Question: What about the “Plant response rating, Russian Thistle” value (Russian thistle; 8 g ai/ha, preemergence) of the same molecule?
Answer: The value was 0.

Question: And the “Plant response rating, Russian Thistle” value (Russian thistle; Preemergence, 16 g ai/ha)?
Answer: Its value is 0.

Question: And the “Plant response rating, Russian Thistle” value (Russian thistle; Preemergence, 31 g ai/ha)?
Answer: The value was 0.

Question: What about the “Plant response rating, Rice, Transplanted” value (rice) of the same molecule?
Answer: The value was 60.
